Results: article PMC10817531, “Chlorinated Enyne Fatty Acid Amides from a Marine Cyanobacterium: Discovery of Taveuniamides L-M and Pharmacological Characterization of Taveuniamide F as a GPCR Antagonist with CNR1 Selectivity” (Marine Drugs, 2023)

What was measured:
Assay in all cases: PathHunter β-arrestin GpcrMAX assay
Assay type in all cases: cell-based
ADCYAP1R1 = molecular target: T1, ADCYAP1R1 (Homo sapiens, UniProt P41586)
T1 construct: purchased DiscoveRx (Eurofins) gpcrMAX PathHunter β-arrestin panel
In short: (§1)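 Both agonist and antagonist responses to 20 µM taveuniamide F were assessed by β-arrestin recruitment (PathHunter EFC).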

ADRB2 = ADRB2 (Homo sapiens, UniProt P07550)
In short: as §1

AGTRL1 = AGTRL1 (Homo sapiens, UniProt P35414)
In short: as §1

AVPR1A = AVPR1A (Homo sapiens, UniProt P37288)
In short: as §1

C3AR1 = C3AR1 (Homo sapiens, UniProt Q16581)
Chain of C3AR1 (Q16581 whole entry): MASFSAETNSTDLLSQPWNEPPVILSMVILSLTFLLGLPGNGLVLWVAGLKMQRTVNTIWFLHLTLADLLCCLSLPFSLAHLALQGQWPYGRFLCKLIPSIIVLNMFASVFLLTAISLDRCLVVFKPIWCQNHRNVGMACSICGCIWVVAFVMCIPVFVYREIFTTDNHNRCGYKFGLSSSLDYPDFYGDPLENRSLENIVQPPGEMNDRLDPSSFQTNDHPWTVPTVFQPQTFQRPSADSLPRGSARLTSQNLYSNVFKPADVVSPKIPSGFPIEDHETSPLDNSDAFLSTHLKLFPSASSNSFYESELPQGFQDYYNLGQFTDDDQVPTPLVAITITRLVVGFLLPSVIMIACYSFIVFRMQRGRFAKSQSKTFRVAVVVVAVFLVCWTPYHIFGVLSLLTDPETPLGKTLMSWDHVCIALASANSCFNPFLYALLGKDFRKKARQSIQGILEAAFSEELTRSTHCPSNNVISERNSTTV
In short: as §1

C5L2 = C5L2 (Homo sapiens, UniProt Q9P296)
In short: as §1

CALCR = CALCR (Homo sapiens, UniProt P30988)
In short: as §1

CALCR-RAMP3 = CALCR-RAMP3 (Homo sapiens, UniProt O60896+P30988)
In short: as §1

CCKAR = molecular target: T2, CCKAR (Homo sapiens, UniProt P32238)
T2 construct: purchased DiscoveRx (Eurofins) gpcrMAX PathHunter β-arrestin panel
In short: as §1

CCR2 = molecular target: T3, CCR2 (Homo sapiens, UniProt P41597)
T3 construct: purchased DiscoveRx (Eurofins) gpcrMAX PathHunter β-arrestin panel
In short: as §1

CRHR1 = molecular target: T4, CRHR1 (Homo sapiens, UniProt P34998)
T4 construct: purchased DiscoveRx (Eurofins) gpcrMAX PathHunter β-arrestin panel
In short: as §1

CXCR3 = molecular target: T5, CXCR3 (Homo sapiens, UniProt P49682)
T5 construct: purchased DiscoveRx (Eurofins) gpcrMAX PathHunter β-arrestin panel
T5 sequence (P49682 whole entry): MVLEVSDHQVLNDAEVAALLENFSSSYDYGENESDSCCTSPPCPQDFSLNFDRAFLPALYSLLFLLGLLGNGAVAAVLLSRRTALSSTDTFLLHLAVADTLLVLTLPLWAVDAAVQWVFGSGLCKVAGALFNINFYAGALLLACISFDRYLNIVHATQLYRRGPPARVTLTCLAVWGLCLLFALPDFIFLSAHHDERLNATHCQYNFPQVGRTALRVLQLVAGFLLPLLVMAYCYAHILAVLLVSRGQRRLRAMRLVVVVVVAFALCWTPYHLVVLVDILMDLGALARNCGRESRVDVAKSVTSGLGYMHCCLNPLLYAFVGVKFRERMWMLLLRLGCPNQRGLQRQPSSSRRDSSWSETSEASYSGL
In short: as §1

CXCR4 = molecular target: T6, CXCR4 (Homo sapiens, UniProt P61073)
T6 construct: purchased DiscoveRx (Eurofins) gpcrMAX PathHunter β-arrestin panel
In short: as §1

EBI2 = molecular target: T7, EBI2 (Homo sapiens, UniProt P32249)
T7 construct: purchased DiscoveRx (Eurofins) gpcrMAX PathHunter β-arrestin panel
T7 sequence (P32249 whole entry): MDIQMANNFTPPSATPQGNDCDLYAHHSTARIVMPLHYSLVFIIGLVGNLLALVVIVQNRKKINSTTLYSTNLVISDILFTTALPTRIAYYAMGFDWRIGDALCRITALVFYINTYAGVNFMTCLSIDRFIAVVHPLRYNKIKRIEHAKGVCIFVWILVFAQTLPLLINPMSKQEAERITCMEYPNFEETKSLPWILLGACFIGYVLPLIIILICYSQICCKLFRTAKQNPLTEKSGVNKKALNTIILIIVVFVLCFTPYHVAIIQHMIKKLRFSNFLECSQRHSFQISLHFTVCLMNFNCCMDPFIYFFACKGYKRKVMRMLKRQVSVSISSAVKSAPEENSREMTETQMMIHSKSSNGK
In short: as §1

EDG5 = molecular target: T8, EDG5 (Homo sapiens, UniProt O95136)
T8 construct: purchased DiscoveRx (Eurofins) gpcrMAX PathHunter β-arrestin panel
T8 sequence (O95136 whole entry): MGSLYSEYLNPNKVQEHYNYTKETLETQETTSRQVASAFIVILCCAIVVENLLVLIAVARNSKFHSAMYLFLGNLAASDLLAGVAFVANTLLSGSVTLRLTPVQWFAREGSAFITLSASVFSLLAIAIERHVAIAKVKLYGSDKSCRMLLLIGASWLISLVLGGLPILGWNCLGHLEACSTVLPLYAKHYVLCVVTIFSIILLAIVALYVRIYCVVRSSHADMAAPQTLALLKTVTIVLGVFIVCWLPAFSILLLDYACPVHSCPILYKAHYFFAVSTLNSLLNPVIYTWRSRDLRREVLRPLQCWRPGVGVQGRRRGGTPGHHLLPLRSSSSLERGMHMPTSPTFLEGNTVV
In short: as §1

F2R = molecular target: T9, F2R (Homo sapiens, UniProt P25116)
T9 construct: purchased DiscoveRx (Eurofins) gpcrMAX PathHunter β-arrestin panel
In short: as §1

FFAR1 = molecular target: T10, FFAR1 (Homo sapiens, UniProt O14842)
T10 construct: purchased DiscoveRx (Eurofins) gpcrMAX PathHunter β-arrestin panel
T10 sequence (O14842 whole entry): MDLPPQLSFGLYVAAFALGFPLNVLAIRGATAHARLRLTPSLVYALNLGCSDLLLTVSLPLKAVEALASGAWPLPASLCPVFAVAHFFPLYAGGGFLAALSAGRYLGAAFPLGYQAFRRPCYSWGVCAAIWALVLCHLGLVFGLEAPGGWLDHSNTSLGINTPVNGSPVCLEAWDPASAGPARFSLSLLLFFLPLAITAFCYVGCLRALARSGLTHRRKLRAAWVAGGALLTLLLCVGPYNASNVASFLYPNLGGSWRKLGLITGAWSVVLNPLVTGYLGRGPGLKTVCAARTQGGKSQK
In short: as §1

FPR1 = molecular target: T11, FPR1 (Homo sapiens, UniProt P21462)
T11 construct: purchased DiscoveRx (Eurofins) gpcrMAX PathHunter β-arrestin panel
In short: as §1

GALR1 = molecular target: T12, GALR1 (Homo sapiens, UniProt P47211)
T12 construct: purchased DiscoveRx (Eurofins) gpcrMAX PathHunter β-arrestin panel
In short: as §1

GPR35 = molecular target: T13, GPR35 (Homo sapiens, UniProt Q9HC97)
T13 construct: purchased DiscoveRx (Eurofins) gpcrMAX PathHunter β-arrestin panel
In short: as §1

HRH1 = molecular target: T14, HRH1 (Homo sapiens, UniProt P35367)
T14 construct: purchased DiscoveRx (Eurofins) gpcrMAX PathHunter β-arrestin panel
T14 sequence (P35367 whole entry): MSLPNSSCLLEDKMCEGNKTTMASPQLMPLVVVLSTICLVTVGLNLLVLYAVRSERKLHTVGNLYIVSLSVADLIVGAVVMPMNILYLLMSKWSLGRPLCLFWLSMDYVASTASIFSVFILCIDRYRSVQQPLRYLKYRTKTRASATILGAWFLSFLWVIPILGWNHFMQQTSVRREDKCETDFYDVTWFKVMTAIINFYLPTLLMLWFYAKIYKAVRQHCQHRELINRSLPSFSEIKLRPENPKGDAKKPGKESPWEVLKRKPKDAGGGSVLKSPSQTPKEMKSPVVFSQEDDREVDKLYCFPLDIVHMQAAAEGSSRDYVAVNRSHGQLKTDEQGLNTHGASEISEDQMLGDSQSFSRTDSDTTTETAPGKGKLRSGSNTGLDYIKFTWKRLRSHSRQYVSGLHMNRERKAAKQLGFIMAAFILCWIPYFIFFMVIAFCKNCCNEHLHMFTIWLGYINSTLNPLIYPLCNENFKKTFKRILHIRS
In short: as §1

HTR5A = molecular target: T15, HTR5A (Homo sapiens, UniProt P47898)
T15 construct: purchased DiscoveRx (Eurofins) gpcrMAX PathHunter β-arrestin panel
T15 sequence (P47898 whole entry): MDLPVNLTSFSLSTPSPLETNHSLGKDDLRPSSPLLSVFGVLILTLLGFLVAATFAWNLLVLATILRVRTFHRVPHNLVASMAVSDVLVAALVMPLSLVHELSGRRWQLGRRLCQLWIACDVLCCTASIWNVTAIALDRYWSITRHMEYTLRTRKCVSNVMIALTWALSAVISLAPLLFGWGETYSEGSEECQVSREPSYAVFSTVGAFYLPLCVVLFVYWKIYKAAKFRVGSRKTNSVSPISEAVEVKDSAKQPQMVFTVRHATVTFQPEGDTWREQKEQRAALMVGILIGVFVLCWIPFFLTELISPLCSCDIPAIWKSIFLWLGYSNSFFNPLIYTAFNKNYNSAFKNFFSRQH
In short: as §1

KISS1R = molecular target: T16, KISS1R (Homo sapiens, UniProt Q969F8)
T16 construct: purchased DiscoveRx (Eurofins) gpcrMAX PathHunter β-arrestin panel
T16 sequence (Q969F8 whole entry): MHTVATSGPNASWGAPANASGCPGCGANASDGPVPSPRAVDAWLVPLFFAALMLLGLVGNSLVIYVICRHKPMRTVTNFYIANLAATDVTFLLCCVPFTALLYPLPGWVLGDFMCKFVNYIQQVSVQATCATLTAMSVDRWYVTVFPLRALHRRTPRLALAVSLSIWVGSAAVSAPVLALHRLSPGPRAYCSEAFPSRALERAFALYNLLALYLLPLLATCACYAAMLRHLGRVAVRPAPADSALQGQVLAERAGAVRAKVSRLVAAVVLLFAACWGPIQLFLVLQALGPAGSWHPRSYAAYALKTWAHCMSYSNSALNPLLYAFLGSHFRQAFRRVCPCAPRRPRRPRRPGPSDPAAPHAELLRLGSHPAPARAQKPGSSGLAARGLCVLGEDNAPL
In short: as §1

MC1R = molecular target: T17, MC1R (Homo sapiens, UniProt Q01726)
T17 construct: purchased DiscoveRx (Eurofins) gpcrMAX PathHunter β-arrestin panel
In short: as §1

MCHR1 = molecular target: T18, MCHR1 (Homo sapiens, UniProt Q99705)
T18 construct: purchased DiscoveRx (Eurofins) gpcrMAX PathHunter β-arrestin panel
In short: as §1

MRGPRX2 = molecular target: T19, MRGPRX2 (Homo sapiens, UniProt Q96LB1)
T19 construct: purchased DiscoveRx (Eurofins) gpcrMAX PathHunter β-arrestin panel
In short: as §1

NPBWR1 = molecular target: T20, NPBWR1 (Homo sapiens, UniProt P48145)
T20 construct: purchased DiscoveRx (Eurofins) gpcrMAX PathHunter β-arrestin panel
In short: as §1

NPBWR2 = molecular target: T21, NPBWR2 (Homo sapiens, UniProt P48146)
T21 construct: purchased DiscoveRx (Eurofins) gpcrMAX PathHunter β-arrestin panel
T21 sequence (P48146 whole entry): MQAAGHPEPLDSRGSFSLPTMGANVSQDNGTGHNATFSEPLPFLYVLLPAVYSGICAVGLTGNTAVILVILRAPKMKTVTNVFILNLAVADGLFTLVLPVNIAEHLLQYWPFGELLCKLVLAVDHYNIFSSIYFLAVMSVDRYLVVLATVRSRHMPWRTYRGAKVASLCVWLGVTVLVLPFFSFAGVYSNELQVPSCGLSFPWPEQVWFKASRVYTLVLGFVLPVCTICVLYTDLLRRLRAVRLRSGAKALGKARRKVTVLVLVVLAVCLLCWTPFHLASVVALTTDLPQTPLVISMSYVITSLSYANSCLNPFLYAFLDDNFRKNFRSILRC
In short: as §1

OPRK1 = molecular target: T22, OPRK1 (Homo sapiens, UniProt P41145)
T22 construct: purchased DiscoveRx (Eurofins) gpcrMAX PathHunter β-arrestin panel
In short: as §1

OXER1 = molecular target: T23, OXER1 (Homo sapiens, UniProt Q8TDS5)
T23 construct: purchased DiscoveRx (Eurofins) gpcrMAX PathHunter β-arrestin panel
In short: as §1

OXTR = molecular target: T24, OXTR (Homo sapiens, UniProt P30559)
T24 construct: purchased DiscoveRx (Eurofins) gpcrMAX PathHunter β-arrestin panel
In short: as §1

P2RY11 = molecular target: T25, P2RY11 (Homo sapiens, UniProt Q96G91)
T25 construct: purchased DiscoveRx (Eurofins) gpcrMAX PathHunter β-arrestin panel
T25 sequence (Q96G91 whole entry, one chain of several): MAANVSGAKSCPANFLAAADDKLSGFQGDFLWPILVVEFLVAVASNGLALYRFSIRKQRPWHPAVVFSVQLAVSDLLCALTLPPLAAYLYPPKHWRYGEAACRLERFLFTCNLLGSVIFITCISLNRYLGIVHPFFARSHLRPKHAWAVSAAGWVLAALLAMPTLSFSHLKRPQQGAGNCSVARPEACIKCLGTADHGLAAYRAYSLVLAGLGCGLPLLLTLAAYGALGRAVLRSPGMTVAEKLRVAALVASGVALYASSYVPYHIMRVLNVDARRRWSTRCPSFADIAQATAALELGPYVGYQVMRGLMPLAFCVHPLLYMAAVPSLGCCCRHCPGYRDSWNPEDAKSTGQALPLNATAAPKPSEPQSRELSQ
In short: as §1

P2RY12 = molecular target: T26, P2RY12 (Homo sapiens, UniProt Q9H244)
T26 construct: purchased DiscoveRx (Eurofins) gpcrMAX PathHunter β-arrestin panel
In short: as §1

P2RY2 = molecular target: T27, P2RY2 (Homo sapiens, UniProt P41231)
T27 construct: purchased DiscoveRx (Eurofins) gpcrMAX PathHunter β-arrestin panel
In short: as §1

PPYR1 = molecular target: T28, PPYR1 (Homo sapiens, UniProt P50391)
T28 construct: purchased DiscoveRx (Eurofins) gpcrMAX PathHunter β-arrestin panel
In short: as §1

PTGFR = molecular target: T29, PTGFR (Homo sapiens, UniProt P43088)
T29 construct: purchased DiscoveRx (Eurofins) gpcrMAX PathHunter β-arrestin panel
In short: as §1

PTGIR = molecular target: T30, PTGIR (Homo sapiens, UniProt P43119)
T30 construct: purchased DiscoveRx (Eurofins) gpcrMAX PathHunter β-arrestin panel
In short: as §1

PTHR1 = molecular target: T31, PTHR1 (Homo sapiens, UniProt Q03431)
T31 construct: purchased DiscoveRx (Eurofins) gpcrMAX PathHunter β-arrestin panel
In short: as §1

SSTR3 = molecular target: T32, SSTR3 (Homo sapiens, UniProt P32745)
T32 construct: purchased DiscoveRx (Eurofins) gpcrMAX PathHunter β-arrestin panel
In short: as §1

SSTR5 = molecular target: T33, SSTR5 (Homo sapiens, UniProt P35346)
T33 construct: purchased DiscoveRx (Eurofins) gpcrMAX PathHunter β-arrestin panel
In short: as §1

TACR2 = molecular target: T34, TACR2 (Homo sapiens, UniProt P21452)
T34 construct: purchased DiscoveRx (Eurofins) gpcrMAX PathHunter β-arrestin panel
T34 sequence (P21452 whole entry): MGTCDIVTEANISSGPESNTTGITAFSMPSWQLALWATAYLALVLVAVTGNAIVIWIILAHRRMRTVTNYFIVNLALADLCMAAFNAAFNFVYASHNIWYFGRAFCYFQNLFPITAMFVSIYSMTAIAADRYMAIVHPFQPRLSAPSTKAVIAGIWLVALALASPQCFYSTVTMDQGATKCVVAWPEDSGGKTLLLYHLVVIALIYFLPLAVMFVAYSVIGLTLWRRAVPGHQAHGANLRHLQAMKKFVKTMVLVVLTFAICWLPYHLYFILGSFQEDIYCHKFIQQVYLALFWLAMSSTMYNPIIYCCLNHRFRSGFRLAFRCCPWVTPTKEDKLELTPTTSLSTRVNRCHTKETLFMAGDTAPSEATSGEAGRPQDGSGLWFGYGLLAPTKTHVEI
In short: as §1

TACR3 = molecular target: T35, TACR3 (Homo sapiens, UniProt P29371)
T35 construct: purchased DiscoveRx (Eurofins) gpcrMAX PathHunter β-arrestin panel
In short: as §1

VIPR1 = molecular target: T36, VIPR1 (Homo sapiens, UniProt P32241)
T36 construct: purchased DiscoveRx (Eurofins) gpcrMAX PathHunter β-arrestin panel
T36 sequence (P32241 31-457): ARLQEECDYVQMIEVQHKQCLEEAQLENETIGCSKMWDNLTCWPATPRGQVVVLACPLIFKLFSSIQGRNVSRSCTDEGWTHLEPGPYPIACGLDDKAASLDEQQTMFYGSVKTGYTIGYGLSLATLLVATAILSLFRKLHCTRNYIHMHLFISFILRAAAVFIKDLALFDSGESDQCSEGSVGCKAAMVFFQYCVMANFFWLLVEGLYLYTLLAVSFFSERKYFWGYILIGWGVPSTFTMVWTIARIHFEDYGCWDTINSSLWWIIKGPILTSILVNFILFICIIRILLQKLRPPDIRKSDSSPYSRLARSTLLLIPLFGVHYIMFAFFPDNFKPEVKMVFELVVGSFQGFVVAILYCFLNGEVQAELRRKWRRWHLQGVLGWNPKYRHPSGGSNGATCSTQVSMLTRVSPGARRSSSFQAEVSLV
In short: as §1

What does the source list for `CC(=O)N[C@@H](CCCC#C/C=C/Cl)CCCCCCC(Cl)Cl` [Compound 4, taveuniamide F]?
inhibition at 20 µM (ADCYAP1R1): 16.5%; inhibition at 20 µM (ADRB2): 25.3%; inhibition at 20 µM (AGTRL1): 6.8%; inhibition at 20 µM (AVPR1A): 48.5%; inhibition at 20 µM (C3AR1): 10.3%; inhibition at 20 µM (C5L2): 24.1%; inhibition at 20 µM (CALCR): 14.1%; inhibition at 20 µM (CALCR-RAMP3): 3.1%; inhibition at 20 µM (CCKAR): 10.9%; inhibition at 20 µM (CCR2): -1.7%; inhibition at 20 µM (CRHR1): -2.4%; inhibition at 20 µM (CXCR3): 4.6%; inhibition at 20 µM (CXCR4): 43.8%; inhibition at 20 µM (EBI2): 18%; inhibition at 20 µM (EDG5): 0.8%; inhibition at 20 µM (F2R): 11.7%; inhibition at 20 µM (FFAR1): 42%; inhibition at 20 µM (FPR1): -4.7%; inhibition at 20 µM (GALR1): 5.7%; inhibition at 20 µM (GPR35): 27.1%; inhibition at 20 µM (HRH1): 3%; inhibition at 20 µM (HTR5A): 45.6%; inhibition at 20 µM (KISS1R): 31.5%; inhibition at 20 µM (MC1R): 10.2%; inhibition at 20 µM (MCHR1): 16.3%; inhibition at 20 µM (MRGPRX2): 64.7%; inhibition at 20 µM (NPBWR1): -12.1%; inhibition at 20 µM (NPBWR2): 13.7%; inhibition at 20 µM (OPRK1): 20.1%; inhibition at 20 µM (OXER1): 18.1%; inhibition at 20 µM (OXTR): 34.2%; inhibition at 20 µM (P2RY11): 8.2%; inhibition at 20 µM (P2RY12): 1.4%; inhibition at 20 µM (P2RY2): -1.1%; inhibition at 20 µM (PPYR1): 50.7%; inhibition at 20 µM (PTGFR): 43.1%; inhibition at 20 µM (PTGIR): 60.2%; inhibition at 20 µM (PTHR1): 17.5%; inhibition at 20 µM (SSTR3): 41.3%; inhibition at 20 µM (SSTR5): 2.4%; inhibition at 20 µM (TACR2): 59.3%; inhibition at 20 µM (TACR3): 15.2%; inhibition at 20 µM (VIPR1): -2.9%
